Test results reported in US10759783B2, “Biaryl inhibitors of Bruton'S tyrosine kinase” (BIOGEN MA INC., priority 2013, dated 2020).

Tests used:
[1] = biological target: BTK (phospho-BTK) in human whole blood (Homo sapiens, UniProt Q06187); experiment: In vitro PD assay in human whole blood (pBTK assay)
[2] = biological target: T1, BTK enzyme (Homo sapiens, UniProt Q06187); experiment: In vitro BTK kinase assay: BTK-POLYGAT-LS assay; assay type: biochemical; settings: ATP 10 μM, read-out: IC50 (10uMATP)
T1 construct: purchased Upstate 14-552
T1 sequence (Q06187 whole entry): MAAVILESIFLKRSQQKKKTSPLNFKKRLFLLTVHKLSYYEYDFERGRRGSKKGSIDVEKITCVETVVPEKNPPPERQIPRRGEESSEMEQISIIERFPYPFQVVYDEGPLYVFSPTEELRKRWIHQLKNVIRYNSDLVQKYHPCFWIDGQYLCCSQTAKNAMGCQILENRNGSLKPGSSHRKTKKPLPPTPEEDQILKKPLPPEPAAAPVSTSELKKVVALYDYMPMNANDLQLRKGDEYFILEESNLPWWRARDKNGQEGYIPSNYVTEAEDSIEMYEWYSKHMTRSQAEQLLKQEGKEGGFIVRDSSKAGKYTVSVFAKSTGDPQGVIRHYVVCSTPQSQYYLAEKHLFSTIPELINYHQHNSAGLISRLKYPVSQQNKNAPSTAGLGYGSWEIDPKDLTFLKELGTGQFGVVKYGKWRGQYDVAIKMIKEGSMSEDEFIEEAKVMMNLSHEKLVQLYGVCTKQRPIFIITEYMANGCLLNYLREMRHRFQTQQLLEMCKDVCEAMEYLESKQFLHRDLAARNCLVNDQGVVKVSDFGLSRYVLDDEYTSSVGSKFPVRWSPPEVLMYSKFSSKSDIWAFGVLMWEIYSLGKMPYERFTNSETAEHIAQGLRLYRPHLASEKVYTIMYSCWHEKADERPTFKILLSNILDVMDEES
Summary of the method: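 Human BTK activity was measured with final 10 μM ATP and 100 nM polyGAT substrate in pH 7.5 Tris buffer with 10 mM MgCl2, DTT, Triton X-100 and casein.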

Chain of BTK (phospho-BTK) in human whole blood (Q06187 whole entry): as above

Structure (SMILES) | IC50 [1] | IC50 [2]
Cc1cc(-c2cc(Nc3cc4n(n3)CCOC4)ncn2)ccc1CNC(=O)N1CC(OC(C)(C)C)C1 [Example I-287, 3-tert-butoxy-N-[[4-[6-(6,7-dihydro-4H-pyrazolo[5,1-c][1,4]oxazin-2-ylamino)pyrimidin-4-yl]-2-methyl-phenyl]methyl]azetidine-1-carboxamide] | < 500 nM | < 10 nM
CC(C)n1cc(Nc2nccc(-c3ccc(CNC(=O)N4CCC(C(C)(C)C)C4)c(C(F)(F)F)c3)n2)cn1 (stereo not shown) [Example I-293, 3-tert-butyl-N-[[4-[2-[(1-isopropylpyrazol-4-yl)amino]pyrimidin-4-yl]-2-(trifluoromethyl)phenyl]methyl]pyrrolidine-1-carboxamide] | < 500 nM | < 10 nM
CC(C)(C)OC1CN(C(=O)NCc2ccc(-c3ccnc(Nc4cnn(C5CC5)c4)n3)cc2C(F)(F)F)C1 [Example I-294, 3-tert-butoxy-N-[[4-[2-[(1-cyclopropylpyrazol-4-yl)amino]pyrimidin-4-yl]-2-(trifluoromethyl)phenyl]methyl]azetidine-1-carboxamide] | < 500 nM | < 10 nM
COCCn1cc(Nc2nccc(-c3ccc(CNC(=O)N4CCC(C(C)(C)C)C4)c(C(F)(F)F)c3)n2)cn1 (stereo not shown) [Example I-295, 3-tert-butyl-N-[[4-[2-[[1-(2-methoxyethyl)pyrazol-4-yl]amino]pyrimidin-4-yl]-2-(trifluoromethyl)phenyl]methyl]pyrrolidine-1-carboxamide] | < 500 nM | < 10 nM
CC(C)(C)C1CCN(C(=O)NCc2ccc(-c3ccnc(Nc4cnn(C5CC5)c4)n3)cc2C(F)(F)F)C1 (stereo not shown) [Example I-296, 3-tert-butyl-N-[[4-[2-[(1-cyclopropylpyrazol-4-yl)amino]pyrimidin-4-yl]-2-(trifluoromethyl)phenyl]methyl]pyrrolidine-1-carboxamide] | < 500 nM | < 10 nM
CCn1cc(Nc2nccc(-c3ccc(CNC(=O)N4CCC(C(C)(C)C)C4)c(C(F)(F)F)c3)n2)cn1 (stereo not shown) [Example I-297, 3-tert-butyl-N-[[4-[2-[(1-ethylpyrazol-4-yl)amino]pyrimidin-4-yl]-2-(trifluoromethyl)phenyl]methyl]pyrrolidine-1-carboxamide] | < 500 nM | < 10 nM
CN1CCC(n2cc(Nc3nccc(-c4ccc(CNC(=O)N5CCC(C(C)(C)C)C5)c(C(F)(F)F)c4)n3)cn2)CC1 (stereo not shown) [Example I-298, 3-tert-butyl-N-[[4-[2-[[1-(1-methyl-4-piperidyl)pyrazol-4-yl]amino]pyrimidin-4-yl]-2-(trifluoromethyl)phenyl]methyl]pyrrolidine-1-carboxamide] | < 500 nM | < 10 nM
CC(C)OC1CN(C(=O)NCc2ccc(-c3ccnc(Nc4cnn(C(C)C)c4)n3)cc2C(F)(F)F)C1 [Example I-299, 3-isopropoxy-N-[[4-[2-[(1-isopropylpyrazol-4-yl)amino]pyrimidin-4-yl]-2-(trifluoromethyl)phenyl]methyl]azetidine-1-carboxamide] | < 500 nM | < 10 nM
COC1CN(C(=O)NCc2ccc(-c3ccnc(Nc4cnn(C)c4)n3)cc2C)C1 [Example I-300, 3-methoxy-N-[[2-methyl-4-[2-[(1-methylpyrazol-4-yl)amino]pyrimidin-4-yl]phenyl]methyl]azetidine-1-carboxamideacid] | < 500 nM | 10 to 99 nM
CC(C)OC1CN(C(=O)NCc2ccc(-c3ccnc(Nc4cnn(CCO)c4)n3)cc2C(F)(F)F)C1 [Example I-301, N-[[4-[2-[[1-(2-hydroxyethyl)pyrazol-4-yl]amino]pyrimidin-4-yl]-2-(trifluoromethyl)phenyl]methyl]-3-isopropoxy-azetidine-1-carboxamide] | < 500 nM | < 10 nM
Cc1cc(-c2ccnc(Nc3cnn(C4CCN(C)CC4)c3)n2)ccc1CNC(=O)N1CC(OC(C)(C)C)C1 [Example I-302, 3-tert-butoxy-N-[[2-methyl-4-[2-[[1-(1-methyl-4-piperidyl)pyrazol-4-yl]amino]pyrimidin-4-yl]phenyl]methyl]azetidine-1-carboxamide] | < 500 nM | < 10 nM

Now from value to molecule:

IC50 [1] | IC50 [2] | Structure (SMILES)
< 500 nM | < 10 nM | Cc1cc(-c2cc(Nc3cc4n(n3)CCOC4)ncn2)ccc1CNC(=O)c1cnc(C(C)(C)C)s1 [Example I-276, 2-tert-butyl-N-[[4-[6-(6,7-dihydro-4H-pyrazolo[5,1-c][1,4]oxazin-2-ylamino)pyrimidin-4-yl]-2-methyl-phenyl]methyl]thiazole-5-carboxamide]
< 500 nM | < 10 nM | Cc1cc(-c2cc(Nc3cc4n(n3)CCOC4)ncn2)ccc1CNC(=O)N1CC(OC(C)C)C1 [Example I-277, N-[[4-[6-(6,7-dihydro-4H-pyrazolo[5,1-c][1,4]oxazin-2-ylamino)pyrimidin-4-yl]-2-methyl-phenyl]methyl]-3-isopropoxy-azetidine-1-carboxamide]
< 500 nM | < 10 nM | Cc1cc(-c2cc(Nc3cc4n(n3)CCN(C)C4=O)ncn2)ccc1CNC(=O)c1cnc(C(C)(C)C)s1 [Example I-278, 2-tert-butyl-N-[[2-methyl-4-[6-[(5-methyl-4-oxo-6,7-dihydropyrazolo[1,5-a]pyrazin-2-yl)amino]pyrimidin-4-yl]phenyl]methyl]thiazole-5-carboxamide]
< 500 nM | < 10 nM | Cc1cc(-c2cc(Nc3cc4n(n3)CC(C)N(C)C4)ncn2)ccc1CNC(=O)c1cnc(C(C)(C)C)s1 (stereo not shown) [Example I-279, 2-tert-butyl-N-[[4-[6-[(5,6-dimethyl-6,7-dihydro-4H-pyrazolo[1,5-a]pyrazin-2-yl)amino]pyrimidin-4-yl]-2-methyl-phenyl]methyl]thiazole-5-carboxamide]
< 500 nM | < 10 nM | Cc1cc(-c2cc(Nc3cc4n(n3)CC(C)N(C)C4)ncn2)ccc1CNC(=O)c1cnn(C(C)(C)C)c1 (stereo not shown) [Example I-280, 1-tert-butyl-N-[[4-[6-[(5,6-dimethyl-6,7-dihydro-4H-pyrazolo[1,5-a]pyrazin-2-yl)amino]pyrimidin-4-yl]-2-methyl-phenyl]methyl]pyrazole-4-carboxamide]
< 500 nM | < 10 nM | Cc1cc(-c2cc(Nc3cc4n(n3)CC(=O)N(C)C4)ncn2)ccc1CNC(=O)N1CCC(C(C)(C)C)C1 (stereo not shown) [Example I-281, 3-tert-butyl-N-[[2-methyl-4-[6-[(5-methyl-6-oxo-4,7-dihydropyrazolo[1,5-a]pyrazin-2-yl)amino]pyrimidin-4-yl]phenyl]methyl]pyrrolidine-1-carboxamide]
< 500 nM | < 10 nM | Cc1cc(-c2cc(Nc3cc4n(n3)CCN(C)C4C)ncn2)ccc1CNC(=O)c1cnn(C(C)(C)C)c1 (stereo not shown) [Example I-282, 1-tert-butyl-N-[[4-[6-[(4,5-dimethyl-6,7-dihydro-4H-pyrazolo[1,5-a]pyrazin-2-yl)amino]pyrimidin-4-yl]-2-methyl-phenyl]methyl]pyrazole-4-carboxamide]
< 500 nM | < 10 nM | Cc1cc(-c2cc(Nc3cc4n(n3)CCN(C)C4C)ncn2)ccc1CNC(=O)c1cnc(C(C)(C)C)s1 (stereo not shown) [Example I-283, 2-tert-butyl-N-[[4-[6-[(4,5-dimethyl-6,7-dihydro-4H-pyrazolo[1,5-a]pyrazin-2-yl)amino]pyrimidin-4-yl]-2-methyl-phenyl]methyl]thiazole-5-carboxamide]
< 500 nM | < 10 nM | Cc1cc(-c2cc(Nc3cc4n(n3)CCN(C)C4C)ncn2)ccc1CNC(=O)N1CCC(C(C)(C)C)C1 (stereo not shown) [Example I-284, 3-tert-butyl-N-[[4-[6-[(4,5-dimethyl-6,7-dihydro-4H-pyrazolo[1,5-a]pyrazin-2-yl)amino]pyrimidin-4-yl]-2-methyl-phenyl]methyl]pyrrolidine-1-carboxamide]
< 500 nM | < 10 nM | Cc1cc(-c2cc(Nc3cc4n(n3)CCCN(CCO)C4)ncn2)ccc1CNC(=O)c1cnc(C(C)(C)C)s1 [Example I-285, 2-tert-butyl-N-[[4-[6-[[5-(2-hydroxyethyl)-4,6,7,8-tetrahydropyrazolo[1,5-a][1,4]diazepin-2-yl]amino]pyrimidin-4-yl]-2-methyl-phenyl]methyl]thiazole-5-carboxamide]
< 500 nM | < 10 nM | Cc1cc(-c2cc(Nc3cc4n(n3)CC(=O)N(C)C4)ncn2)ccc1CNC(=O)c1cnc(C(C)(C)C)s1 [Example I-286, 2-tert-butyl-N-[[2-methyl-4-[6-[(5-methyl-6-oxo-4,7-dihydropyrazolo[1,5-a]pyrazin-2-yl)amino]pyrimidin-4-yl]phenyl]methyl]thiazole-5-carboxamide]
< 500 nM | < 10 nM | Cc1cc(-c2cc(Nc3cc4n(n3)CCOC4)ncn2)ccc1CNC(=O)N1CCC(C(C)(C)C)C1 (stereo not shown) [Example I-288, 3-tert-butyl-N-[[4-[6-(6,7-dihydro-4H-pyrazolo[5,1-c][1,4]oxazin-2-ylamino)pyrimidin-4-yl]-2-methyl-phenyl]methyl]pyrrolidine-1-carboxamide]
< 500 nM | < 10 nM | Cc1cc(-c2ccnc(Nc3cnn(C4CCN(C)CC4)c3)n2)ccc1CN1Cc2nc(C(C)(C)C)sc2C1=O [Example I-289, 2-tert-butyl-5-[[2-methyl-4-[2-[[1-(1-methyl-4-piperidyl)pyrazol-4-yl]amino]pyrimidin-4-yl]phenyl]methyl]-4H-pyrrolo[3,4-d]thiazol-6-one]
< 500 nM | < 10 nM | Cn1cc(Nc2nccc(-c3ccc(CNC(=O)c4cnn(C(C)(C)C)c4)c(Cl)c3)n2)cn1 [Example I-291, 1-tert-butyl-N-[[2-chloro-4-[2-[(1-methylpyrazol-4-yl)amino]pyrimidin-4-yl]phenyl]methyl]pyrazole-4-carboxamide]
< 500 nM | < 10 nM | Cc1cc(-c2ccnc(Nc3cnn(C4CCC(C(=O)O)CC4)c3)n2)ccc1CNC(=O)c1cnn(C(C)(C)C)c1 (stereo not shown) [Example I-292, 4-[4-[[4-[4-[[(1-tert-butylpyrazole-4-carbonyl)amino]methyl]-3-methyl-phenyl]pyrimidin-2-yl]amino]pyrazol-1-yl]cyclohexanecarboxylic acid]
